{
  "source": "patent US11578130B2",
  "about": "“Regulatable chimeric antigen receptor” (Novartis AG, priority 2013, dated 2023)",
  "test": "Clinical trial in elderly volunteers: adverse events, safety and tolerability",
  "assay_type": "in vivo, human",
  "details": "for Blood cholesterol increased, treatment-related AE / Conjunctivitis, treatment-related AE / Diarrhea, treatment-related AE / Dry mouth, treatment-related AE / Dyspepsia, treatment-related AE / Erythema, treatment-related AE / Fatigue, treatment-related AE / Headache, treatment-related AE / Insomnia, treatment-related AE / Limb discomfort, treatment-related AE / Low density lipoprotein increased, treatment-related AE / Mouth ulceration, treatment-related AE / Mucosal inflammation, treatment-related AE / Neutropenia, treatment-related AE / Oral pain, treatment-related AE / Paresthesia oral, treatment-related AE / Patients with AE(s), treatment-related / Pruritus, treatment-related AE / Stomatitis, treatment-related AE / Thrombocytopenia, treatment-related AE / Tongue ulceration, treatment-related AE / Total AE(s), treatment-related / Urinary tract infection, treatment-related AE: N = 53",
  "data": [
    {"smiles": "CO[C@H]1C[C@@H]2CC[C@@H](C)[C@@](O)(O2)C(=O)C(=O)N2CCCC[C@H]2C(=O)O[C@H]([C@H](C)C[C@@H]2CC[C@@H](OCCO)[C@H](OC)C2)CC(=O)[C@H](C)/C=C(\\C)[C@@H](O)[C@@H](OC)C(=O)[C@H](C)C[C@H](C)/C=C/C=C/C=C/1C", "note": "[RAD001, (1R,9S,12S,15R,16E,18R,19R,21R,23S,24E,26E,28E,30S,32S,35R)-1,18-dihydroxy-12-{(1R)-2-[(1S,3R,4R)-4-(2-hydroxyethoxy)-3-methoxycyclohexyl]-1-methylethyl}-19,30-dimethoxy-15,17,21,23,29,35-hexamethyl-11,36-dioxa-4-aza-tricyclo[30.3.1.04,9]hexatriaconta-16,24,26,28-tetraene-2,3,10,14,20-pentaone]", "values": [
      {"measurement": "Blood cholesterol increased, treatment-related AE", "setting": "RAD001 5 mg weekly", "value": "2 (3.8%) n (%)"},
      {"measurement": "Conjunctivitis, treatment-related AE", "setting": "RAD001 5 mg weekly", "value": "2 (3.8%) n (%)"},
      {"measurement": "Diarrhea, treatment-related AE", "setting": "RAD001 5 mg weekly", "value": "4 (7.5%) n (%)"},
      {"measurement": "Dry mouth, treatment-related AE", "setting": "RAD001 5 mg weekly", "value": "0 n (%)"},
      {"measurement": "Dyspepsia, treatment-related AE", "setting": "RAD001 5 mg weekly", "value": "3 (5.7%) n (%)"},
      {"measurement": "Erythema, treatment-related AE", "setting": "RAD001 5 mg weekly", "value": "2 (3.8%) n (%)"},
      {"measurement": "Fatigue, treatment-related AE", "setting": "RAD001 5 mg weekly", "value": "2 (3.8%) n (%)"},
      {"measurement": "Headache, treatment-related AE", "setting": "RAD001 5 mg weekly", "value": "2 (3.8%) n (%)"},
      {"measurement": "Insomnia, treatment-related AE", "setting": "RAD001 5 mg weekly", "value": "2 (3.8%) n (%)"},
      {"measurement": "Limb discomfort, treatment-related AE", "setting": "RAD001 5 mg weekly", "value": "2 (3.8%) n (%)"},
      {"measurement": "Low density lipoprotein increased, treatment-related AE", "setting": "RAD001 5 mg weekly", "value": "1 (1.9%) n (%)"},
      {"measurement": "Mouth ulceration, treatment-related AE", "setting": "RAD001 5 mg weekly", "value": "2 (3.8%) n (%)"},
      {"measurement": "Mucosal inflammation, treatment-related AE", "setting": "RAD001 5 mg weekly", "value": "0 n (%)"},
      {"measurement": "Neutropenia, treatment-related AE", "setting": "RAD001 5 mg weekly", "value": "0 n (%)"},
      {"measurement": "Oral pain, treatment-related AE", "setting": "RAD001 5 mg weekly", "value": "2 (3.8%) n (%)"},
      {"measurement": "Paresthesia oral, treatment-related AE", "setting": "RAD001 5 mg weekly", "value": "0 n (%)"},
      {"measurement": "Patients with AE(s), treatment-related", "setting": "RAD001 5 mg weekly", "value": "20 (37.7%) n (%)"},
      {"measurement": "Pruritus, treatment-related AE", "setting": "RAD001 5 mg weekly", "value": "2 (3.8%) n (%)"},
      {"measurement": "Stomatitis, treatment-related AE", "setting": "RAD001 5 mg weekly", "value": "0 n (%)"},
      {"measurement": "Thrombocytopenia, treatment-related AE", "setting": "RAD001 5 mg weekly", "value": "0 n (%)"},
      {"measurement": "Tongue ulceration, treatment-related AE", "setting": "RAD001 5 mg weekly", "value": "1 (1.9%) n (%)"},
      {"measurement": "Total AE(s), treatment-related", "setting": "RAD001 5 mg weekly", "value": "46 n (%)"},
      {"measurement": "Urinary tract infection, treatment-related AE", "setting": "RAD001 5 mg weekly", "value": "0 n (%)"},
      {"measurement": "Blood cholesterol increased, treatment-related AE", "setting": "RAD001 20 mg weekly", "value": "2 (3.8%) n (%)"},
      {"measurement": "Conjunctivitis, treatment-related AE", "setting": "RAD001 20 mg weekly", "value": "0 n (%)"},
      {"measurement": "Diarrhea, treatment-related AE", "setting": "RAD001 20 mg weekly", "value": "1 (1.9%) n (%)"},
      {"measurement": "Dry mouth, treatment-related AE", "setting": "RAD001 20 mg weekly", "value": "2 (3.8%) n (%)"},
      {"measurement": "Dyspepsia, treatment-related AE", "setting": "RAD001 20 mg weekly", "value": "2 (3.8%) n (%)"},
      {"measurement": "Erythema, treatment-related AE", "setting": "RAD001 20 mg weekly", "value": "0 n (%)"},
      {"measurement": "Fatigue, treatment-related AE", "setting": "RAD001 20 mg weekly", "value": "4 (7.5%) n (%)"},
      {"measurement": "Headache, treatment-related AE", "setting": "RAD001 20 mg weekly", "value": "9 (17.0%) n (%)"},
      {"measurement": "Insomnia, treatment-related AE", "setting": "RAD001 20 mg weekly", "value": "1 (1.9%) n (%)"},
      {"measurement": "Limb discomfort, treatment-related AE", "setting": "RAD001 20 mg weekly", "value": "0 n (%)"},
      {"measurement": "Low density lipoprotein increased, treatment-related AE", "setting": "RAD001 20 mg weekly", "value": "2 (3.8%) n (%)"},
      {"measurement": "Mouth ulceration, treatment-related AE", "setting": "RAD001 20 mg weekly", "value": "9 (17.0%) n (%)"},
      {"measurement": "Mucosal inflammation, treatment-related AE", "setting": "RAD001 20 mg weekly", "value": "2 (3.8%) n (%)"},
      {"measurement": "Neutropenia, treatment-related AE", "setting": "RAD001 20 mg weekly", "value": "3 (5.7%) n (%)"},
      {"measurement": "Oral pain, treatment-related AE", "setting": "RAD001 20 mg weekly", "value": "1 (1.9%) n (%)"},
      {"measurement": "Paresthesia oral, treatment-related AE", "setting": "RAD001 20 mg weekly", "value": "0 n (%)"},
      {"measurement": "Patients with AE(s), treatment-related", "setting": "RAD001 20 mg weekly", "value": "27 (50.9%) n (%)"},
      {"measurement": "Pruritus, treatment-related AE", "setting": "RAD001 20 mg weekly", "value": "1 (1.9%) n (%)"},
      {"measurement": "Stomatitis, treatment-related AE", "setting": "RAD001 20 mg weekly", "value": "2 (3.8%) n (%)"},
      {"measurement": "Thrombocytopenia, treatment-related AE", "setting": "RAD001 20 mg weekly", "value": "2 (3.8%) n (%)"},
      {"measurement": "Tongue ulceration, treatment-related AE", "setting": "RAD001 20 mg weekly", "value": "0 n (%)"},
      {"measurement": "Total AE(s), treatment-related", "setting": "RAD001 20 mg weekly", "value": "109 n (%)"},
      {"measurement": "Urinary tract infection, treatment-related AE", "setting": "RAD001 20 mg weekly", "value": "2 (3.8%) n (%)"},
      {"measurement": "tolerability", "setting": "elderly volunteers, 6 weeks, particularly 0.5 mg daily and 5 mg weekly dosing regimens", "value": "well tolerated"},
      {"measurement": "number of severe AEs assessed as related to RAD001 (mouth ulcers)", "setting": "subject treated with 20 mg weekly RAD001", "value": "one"}
    ]}
  ]
}
